Patent US10485550B2, “Ophthalmic drug delivery device and methods of use” (priority 2012, dated 2019)
Values joined by “and” are separate entries in the source; they are usually repeats but may differ in a detail not shown here. Equal values may be shown once.

System: mouse eye
Experiment: Intraocular pressure (TonoLab) in mice after injection of ethacrynic acid, with or without healon, into the episcleral vein
Assay type: in vivo
Protocol: Basline intraocular pressures were measured in both eyes of the mouse using a TonoLab device. A piece of a latex glove was placed over the equator of the mouse eye. Initially, a glass microcannula was used to inject either (a) a solution of ethacrynic acid alone or (b) saline into the episcleral vein at the limbus of the right eye of each mouse. The solution or saline was injected until blanching was observed 360 degrees around the limbus. The piece of latex was then removed from the eye. Intraocular pressures were then measured daily and then weekly in both eyes of all mice. The ethacrynic acid injection alone produced its most profound effect at day 2; however, some effect was maintained until day 7. The results of the above protocol are provided in Table 1, and also shown in FIG. 4, where ethacrynic acid is noted as ECA (squares), saline control is BSS (triangles), and non-treated control is control (diamonds).
Next, ethacrynic acid was combined with healon in a 3:1 ratio. Again, a glass microcannula was used to inject either the ethacrynic acid/healon solution or BSS solution as the control. The ethacrynic acid/healon solution produced its most profound effect at 2 weeks but lasted 3 weeks. The results are provided in Table 2 and also shown in FIG. 3, where ethacrynic acid/healon is designated with squares, BSS as diamonds, and non injected controls as triangles.

[1] = ethacrynic acid injection alone, episcleral vein, mouse

For C=C(CC)C(=O)c1ccc(OCC(=O)O)c(Cl)c1Cl [ECA, [2,3-dichloro-4-(2-methylene-1-oxobutyl)phenoxy]acetic acid], the “Reduction of intraocular pressure (IOP) versus control” value (FIG. 5) was “reduces intraocular pressure (IOP) greater than control”, the “Animal status (mouse ECA6)” value (Table 1, ethacrynic acid alone, 1 wk) was “dead” and the “Intraocular pressure, OD, individual mouse” value (Table 2, ethacrynic acid combined with healon 3:1, episcleral vein injection, 1 day) was 14 and 13 (2×) and 9 (2×). For the same compound, the “Avg. intraocular pressure, OD” value (Table 2, ethacrynic acid combined with healon 3:1, episcleral vein injection, 1 day, group avg (0 hr base avg 16.6)) was 12.25, the “Intraocular pressure, OD, individual mouse” value (Table 2, ethacrynic acid combined with healon 3:1, episcleral vein injection, 2 day) was 12 (2×) and 19 (2×) and 22 and 16 and the “Avg. intraocular pressure, OD” value (Table 2, ethacrynic acid combined with healon 3:1, episcleral vein injection, 2 day, group avg) was 16.8. The “Intraocular pressure, OD, individual mouse” value (Table 2, ethacrynic acid combined with healon 3:1, episcleral vein injection, 5 day) was 13 and 8 and 17 and 14 and 16 and 10, the “Avg. intraocular pressure, OD” value (Table 2, ethacrynic acid combined with healon 3:1, episcleral vein injection, 5 day, group avg) was 13.6 and the “Intraocular pressure, OD, individual mouse” value (Table 2, ethacrynic acid combined with healon 3:1, episcleral vein injection, 7 day) was 10 (3×) and 9 and 7 and 20. For the same compound, the “Avg. intraocular pressure, OD” value (Table 2, ethacrynic acid combined with healon 3:1, episcleral vein injection, 7 day, group avg) was 11.2, the “Intraocular pressure, OD, individual mouse” value (Table 2, ethacrynic acid combined with healon 3:1, episcleral vein injection, 14 day) was 16 and 12 and 14 and 18 (2×) and the “Avg. intraocular pressure, OD” value (Table 2, ethacrynic acid combined with healon 3:1, episcleral vein injection, 14 day, group avg) was 15. For the same compound, the “Intraocular pressure, OD, individual mouse” value (Table 2, ethacrynic acid combined with healon 3:1, episcleral vein injection, 21 day) was 16 and 7 and 14 (2×) and 8, the “Avg. intraocular pressure, OD” value (Table 2, ethacrynic acid combined with healon 3:1, episcleral vein injection, 21 day, group avg) was 12.75 and the “Intraocular pressure, OD, individual mouse” value (Table 2, ethacrynic acid combined with healon 3:1, episcleral vein injection, 35 day) was 11 and 8 and 15 and 17 and 14. The “Avg. intraocular pressure, OD” value (Table 2, ethacrynic acid combined with healon 3:1, episcleral vein injection, 35 day, group avg) was 12.75, the “Intraocular pressure, OD, individual mouse” value (Table 2, ethacrynic acid combined with healon 3:1, episcleral vein injection, 42 day) was 15 and 12 (2×) and 8 and 11 and the “Avg. intraocular pressure, OD” value (Table 2, ethacrynic acid combined with healon 3:1, episcleral vein injection, 42 day, group avg) was 14.11. For the same compound, the “Intraocular pressure, OD, individual mouse” value (Table 2, ethacrynic acid combined with healon 3:1, episcleral vein injection, 56 day) was 13 and 10 (2×) and 7 and 17, the “Avg. intraocular pressure, OD” value (Table 2, ethacrynic acid combined with healon 3:1, episcleral vein injection, 56 day, group avg) was 13.47 and the “Intraocular pressure, OD, individual mouse” value (Table 2, ethacrynic acid combined with healon 3:1, episcleral vein injection, 64 day) was 16 and 12 and 9 and 15 and 14. For the same compound, the “Avg. intraocular pressure, OD” value (Table 2, ethacrynic acid combined with healon 3:1, episcleral vein injection, 64 day, group avg) was 13.83, the “Intraocular pressure, OD, individual mouse” value (Table 2, ethacrynic acid combined with healon 3:1, episcleral vein injection, 74 day (first 74 day column pair)) was 19 and 14 and 17 and 18 and the “Avg. intraocular pressure, OD” value (Table 2, ethacrynic acid combined with healon 3:1, episcleral vein injection, 74 day (first 74 day column pair), group avg) was 17. The “Intraocular pressure, OD, individual mouse” value (Table 2, ethacrynic acid combined with healon 3:1, episcleral vein injection, 74 day (second 74 day column pair)) was 17 and 11 and 16 (2×), the “Avg. intraocular pressure, OD” value (Table 2, ethacrynic acid combined with healon 3:1, episcleral vein injection, 74 day (second 74 day column pair), group avg) was 19 and the “Animal status (mouse ECA6)” value (Table 2, 14 day) was “dead”. For the same compound, the “Intraocular pressure, OD, individual mouse” value (ethacrynic acid alone, episcleral vein injection right eye, 1 wk) was 16 and 12 and 14 and 18, the “Avg. intraocular pressure, OD” value (ethacrynic acid alone, episcleral vein injection right eye, 1 wk, group avg (0 hr base avg 16.6)) was 15 and the “Intraocular pressure, OD, individual mouse” value (ethacrynic acid alone, episcleral vein injection right eye, 1 day) was 14 and 13 (2×) and 9. The “Avg. intraocular pressure, OD” value (ethacrynic acid alone, episcleral vein injection right eye, 1 day, group avg (0 hr base avg 16.6)) was 12.25, the “Intraocular pressure, OD, individual mouse” value (ethacrynic acid alone, episcleral vein injection right eye, 2 day) was 12 (2×) and 19 (2×) and 22 and the “Avg. intraocular pressure, OD” value (ethacrynic acid alone, episcleral vein injection right eye, 2 day, group avg (0 hr base avg 16.6)) was 16.8. For the same compound, the “Intraocular pressure, OD, individual mouse” value (ethacrynic acid alone, episcleral vein injection right eye, 5 day) was 13 and 8 and 17 and 14 and 16, the “Avg. intraocular pressure, OD” value (ethacrynic acid alone, episcleral vein injection right eye, 5 day, group avg (0 hr base avg 16.6)) was 13.6 and the “Intraocular pressure, OD, individual mouse” value (ethacrynic acid alone, episcleral vein injection right eye, 6 day) was 10 (2×) and 9 and 7 and 20. For the same compound, the “Avg. intraocular pressure, OD” value (ethacrynic acid alone, episcleral vein injection right eye, 6 day, group avg (0 hr base avg 16.6)) was 11.2, the “Effect on intraocular pressure maintained until” value [1] was 7 days and the “Time of most profound effect on intraocular pressure” value [1] was 2 days.
